Measurements taken from PMC9266460, “KSK-74: Dual Histamine H3 and Sigma-2 Receptor Ligand with Anti-Obesity Potential” (International Journal of Molecular Sciences, 2022).

Legend:
H3 histamine receptor = H3 histamine receptor (Homo sapiens, UniProt Q9Y5N1); assay: Intrinsic activity at H3R, LANCE Ultra cAMP assay; format: cell-based
Protocol: Intrinsic activity studies were performed using two methods, Aequoscreen and LANCE Ultra cAMP assays, according to the manufacturer of the ready-to-use cells with stable expressions of the H3 histamine receptor (Perkin Elmer).
The assay is based on the competition between the europium (Eu) chelate-labeled cAMP tracer and sample cAMP for binding sites on cAMP-specific monoclonal antibodies labeled with the ULight dye.

adipose tissue = assay: Histological examination of adipose tissue (Masson's trichrome); format: in vivo, female Wistar rats; settings: palatable diet; for inflammatory infiltrates in adipose tissue (histological description) / number of adipocytes per 0.1 mm^2 of cross-sectional area / inflammatory index of the adipose tissue: KSK 10 mg/kg, phentermine 7 mg/kg; for number of adipocytes per 0.1 mm^2 of cross-sectional area: means ± SD, n = 6; for inflammatory index of the adipose tissue: standard diet + vehicle 0.5 ± 0.34
Protocol: Adipose tissue samples were prepared for histology using Masson’s trichrome stain (Merck) by fixation in 4% formaldehyde, dehydration in graded alcohol, and embedded in paraffin. The tissue samples were then sectioned using a microtome of 5 μm thickness. Six random fields from each section were analyzed in a blinded manner with an Olympus BX41 light microscope (Olympus, Tokyo, Japan) at magnifications of ×20, ×40 and ×100, and digital images were captured with an Olympus UC90 color camera. The quantitation of the number of adipocytes was performed in eight fields/slide with ×100 objective using an image analysis system: CellSensDimension (Olympus, Tokyo, Japan). The numerical density of the adipocytes was obtained by counting the total number of adipocytes per high-power field ([…]), and then this number was converted to 0.1 mm^2. According to stereometric rules, adipocytes tangent to the left and top edges of the image field were not counted. A semi-quantitative scale was used to assess the inflammatory response in adipose tissue. The following were evaluated on a subjective scale: inflammatory cell infiltration between adipocytes (0—normal, 1—few cells, 2—local clusters, and 3—extensive infiltrates), perivascular infiltration of immune cells (0—normal, 1—few cells, and 2—ring of inflammatory cells), widening of the septum (0—normal and 1—widening), and capillary congestion (0—normal and 1—congestion). A sum calculated from independently assessed values was calculated for each animal as an index of inflammation.

[1] = Pharmacokinetic study, single i.p. dose, plasma LC-MS/MS; format: in vivo, rat; settings: for Tmax / Cmax / CL/F / MRT / half-life / k el / Vd/F: ip; for Tmax / Cmax / CL/F / MRT / half-life / k el / Vz/F (volume of distribution) / Vd/F: rat plasma, single i.p. dose of 10 mg/kg; for Cmax: n = 3, non-compartmental; for CL/F: read-out: CLS/F (clearance) (converted); for MRT: read-out: MRT (mean residence time); for half-life: read-out: t0.5λz (half-life) (converted); for k el: read-out: λz (terminal elimination rate constant) (converted); for Vz/F (volume of distribution) / Vd/F: 10 mg/kg; for Vd/F: rat, plasma, read-out: Vz/F (volume of distribution); for time at which maximal plasma concentration was attained (first sampling point): single i.p. dose of 10 mg/kg b.w.
Protocol: Six rats divided into two experimental groups were used in pharmacokinetic experiments. Three days before the experiment, the rats’ jugular vein was cannulated allowing for multiple blood sampling from a single animal. The investigated compounds were administered i.p. at a single dose of 10 mg/kg. Blood samples (approximately 300 µL) were collected in Eppendorf tubes containing heparin at 5, 15, 30, 60, 120, 240, and 360 min after dosing. Plasma was harvested by centrifuging at 5000× g for 10 min and stored at −30 °C until bioanalysis.
Plasma concentrations of KSK-60 or KSK-74 were measured using the liquid chromatography tandem mass spectrometry (LC-MS/MS) method. The samples (50 μL) were deproteinized in a 1:3 (v/v) ratio with acetonitrile containing an internal standard (IS—pentoxifylline), briefly vortexed, and then centrifuged for 10 min at a speed of 8000× g (Eppendorf miniSpin centrifuge). The supernatant was transferred to autosampler vials and a sample volume of 10 μL was injected into the LC-MS/MS system.
Chromatographic separation was performed on the analytical column XBridge™ C18 (3 × 50 mm, 5 µm, Waters, Dublin, Ireland) using the Agilent 1100 HPLC system (Agilent Technologies, Waldbronn, Germany). The mobile phase containing 0.1% formic acid in acetonitrile and 0.1% formic acid in water was run at 0.3 mL/min in gradient mode. Mass spectrometric detection was performed on an Applied Biosystems MDS Sciex (Concord, ON, Canada) API 2000 triple quadrupole mass spectrometer. Electrospray ionization (ESI) in the positive ion mode was used for ion production. The tandem mass spectrometer was operated at unit resolution in the selected reaction monitoring mode (SRM), monitoring the transitions of the protonated molecular ions m/z 396 to 107 (CE 80 V) for KSK-60, m/z 424 to 107 (CE 80 V) for KSK-74, and m/z 279 to 181 (CE 55 V) for IS. Data acquisition and processing were performed using the Applied Biosystems Analyst version 1.6 software. The calibration curves were constructed by plotting the ratio of the peak area of the studied compound to IS versus drug concentration, and generated by weighted (1/x · x) linear regression analysis. The validated quantitation ranges were from 1 to 2000 ng/mL. The calculated accuracy and precision were within the ranges proposed by the guidelines for the validation of bioanalytical methods (FDA, EMA). No significant matrix effect was observed and there were no stability-related problems during the routine analysis of the samples.
Pharmacokinetic parameters were calculated by employing a non-compartmental approach using Monolix version 2019R1 (Antony, France: Lixoft SAS, 2019) software. The area under the mean plasma concentration versus time curve extrapolated to infinity (AUC0-inf) was estimated using the log/linear trapezoidal rule. AUMC0-inf was estimated by calculating the total area under the first-moment curve by combining the trapezoid calculation of AUMC0-t and the extrapolated area. The mean residence time (MRT) was calculated from AUMC0-inf/AUC0-inf. The terminal rate constant (λz) was calculated by log-linear regression of the drug concentration data in the terminal phase, and the terminal half-life (t1/2) was calculated as 0.693/λz. Clearance (CL/F) was estimated from the administered dose divided by AUC0-inf. The apparent volume of distribution during the terminal phase (Vz/F) was calculated from (CL/F)/λz.

H3 histamine receptor, sequence (Q9Y5N1 whole entry): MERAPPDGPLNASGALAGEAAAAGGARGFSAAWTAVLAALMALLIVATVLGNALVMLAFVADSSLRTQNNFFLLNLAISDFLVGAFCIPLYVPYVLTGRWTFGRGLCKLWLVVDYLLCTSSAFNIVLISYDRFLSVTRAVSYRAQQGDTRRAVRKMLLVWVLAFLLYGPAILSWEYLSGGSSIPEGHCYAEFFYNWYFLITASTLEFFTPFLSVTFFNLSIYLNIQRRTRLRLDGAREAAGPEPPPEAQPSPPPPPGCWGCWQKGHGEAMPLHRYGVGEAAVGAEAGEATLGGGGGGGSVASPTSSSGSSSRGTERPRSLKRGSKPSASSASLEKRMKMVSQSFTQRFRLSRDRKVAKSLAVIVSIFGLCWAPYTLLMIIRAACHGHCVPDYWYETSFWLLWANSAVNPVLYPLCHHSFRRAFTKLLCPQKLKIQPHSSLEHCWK

IC50 (H3 histamine receptor)	Tmax [1]	Cmax [1]	CL/F [1]	MRT [1]	half-life [1]	k el [1]	Vz/F (volume of distribution) [1]	Vd/F [1]	Compound	inflammatory infiltrates in adipose tissue (histological description) (adipose tissue)	number of adipocytes per 0.1 mm^2 of cross-sectional area (adipose tissue)	inflammatory index of the adipose tissue (adipose tissue)	number of rats, Capillary Congestion grade 0-Normal (adipose tissue; n = 6 per group)	number of rats, Capillary Congestion grade 1-Congestion (adipose tissue; n = 6 per group)	number of rats, Inflammatory Cell Infiltration grade 1-Few Cells (adipose tissue; n = 6 per group)	number of rats, Inflammatory Cell Infiltration grade 2-Local Clusters (adipose tissue; n = 6 per group)	number of rats, Perivascular Infiltration grade 1-Few Cells (adipose tissue; n = 6 per group)	number of rats, Perivascular Infiltration grade 2-Ring of Cells (adipose tissue; n = 6 per group)	number of rats, Widening of the Septum grade 0-Normal (adipose tissue; n = 6 per group)	number of rats, Widening of the Septum grade 1-Widening (adipose tissue; n = 6 per group)	also measured
0.78 ± 0.1 nM	4.98 min	109 ng/mL	1170 mL/min/kg	3.28 h	162 min	7.22e-05 s⁻¹	272.63 L/kg	272 L/kg	CCC(=O)c1ccc(OCCCCCCN2CCN(c3ccncc3)CC2)cc1 [KSK-60]	Many inflammatory cells infiltrated the area of adipocytes and the perivascular area	18.02 ± 1.38 per 0.1 mm^2	4.5 ± 0.80	2	4	2	4	2	4	1	5	time at which maximal plasma concentration was attained (first sampling point) [1]: 5 min
23.2 ± 3.6 nM	4.98 min	105 ng/mL	2180 mL/min/kg	2.45 h	163 min	6.94e-05 s⁻¹	513.14 L/kg	513 L/kg	CCC(=O)c1ccc(OCCCCCCCCN2CCN(c3ccncc3)CC2)cc1 [KSK-74]	slightly less inflammatory infiltrates	34.78 ± 4.78 per 0.1 mm^2	comparable to the standard control	5	1	3	2	1	3	3	3	number of rats, Inflammatory Cell Infiltration grade 0-Normal (adipose tissue; n = 6 per group): 1; number of rats, Perivascular Infiltration grade 0-Normal (adipose tissue; n = 6 per group): 2; time at which maximal plasma concentration was attained (first sampling point) [1]: 5 min
